Data set [1] has as its system proteins of Cyt (cytosolic fraction of liver homogenate). The data set is described as follows: Covalent adduct formation of NSAIDs-AG with proteins of cytosolic fraction (Cyt). To be noted: 180 μM, 6 h; for covalent adduct formation with Cyt proteins: protein 1 mg/mL, 37 °C. The class given is binding, rat.
For data set [2], the system named is proteins of Nuc (nuclear fraction of liver homogenate). The data set is described as follows: Covalent adduct formation of NSAIDs-AG with proteins of nuclear fraction (Nuc). It counts as binding, rat. To be noted: 180 μM, 6 h; for covalent adduct formation with Nuc proteins: protein 1 mg/mL, 37 °C.
Data set [3] deals with proteins of Mic (microsomal fraction of liver homogenate). In words: Covalent adduct formation of NSAIDs-AG with proteins of microsomal fraction (Mic). To be noted: for covalent adduct formation with Mic proteins: protein 1 mg/mL.
On the set-up of data set [4]: method as in PMID 20606003, PMID 1673415. The settings on record: phosphate buffers (pH 7.4); cited from earlier work.
In data set [5] the target is T1, UGT1A9 (Homo sapiens, UniProt O60656).
T1 construct: purchased Corning, Inc
T1 sequence (O60656 26-530): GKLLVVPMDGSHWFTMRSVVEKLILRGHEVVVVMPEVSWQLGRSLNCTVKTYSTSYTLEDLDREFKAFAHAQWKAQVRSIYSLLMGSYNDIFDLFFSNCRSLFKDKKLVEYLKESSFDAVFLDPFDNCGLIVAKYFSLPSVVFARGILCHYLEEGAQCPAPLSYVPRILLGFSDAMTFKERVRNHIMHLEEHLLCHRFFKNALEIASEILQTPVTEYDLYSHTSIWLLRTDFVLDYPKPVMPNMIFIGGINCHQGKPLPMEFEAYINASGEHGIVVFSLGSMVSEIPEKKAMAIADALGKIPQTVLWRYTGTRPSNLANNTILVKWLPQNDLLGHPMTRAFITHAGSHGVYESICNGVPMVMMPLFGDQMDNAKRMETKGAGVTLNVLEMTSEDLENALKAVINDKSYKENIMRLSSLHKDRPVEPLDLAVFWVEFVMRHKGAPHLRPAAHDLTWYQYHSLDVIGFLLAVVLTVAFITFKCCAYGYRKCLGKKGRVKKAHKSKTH
In words: Covalent adduct formation of NSAIDs-AG with UGT1A9. It counts as binding. To be noted: 180 μM, UGT 3.4 μM, 6 h. The procedure: The concentrations of UGT were set at 3.4 μM by the preliminary experiments on the linearity of covalent adduct formation. The covalent adduct formation of NSAIDs-AG with organelle proteins and UGT was determined according to previous reports on NSAIDs-AG with albumin with some modifications. After a deproteinization of the reaction mixture, methanol/diethyl ether (3:1) was added to the pellet. […] The concentrations of the parent NSAIDs were measured using liquid chromatography-tandem mass spectrometry (LC-MS/MS). Aliquots of 10 μL were injected into the LC-MS/MS system. The LC-MS/MS equipment consisted of an LC system (UltiMate 3000 series, Thermo Fisher Scientific, Inc.) and TSQ Endura Triple Quadrupole Mass Spectrometer with electrospray ionization (Thermo Fisher Scientific, Inc.). Finnigan Xcalibur software (Thermo Fisher Scientific, Inc.) was used for data recording and analysis. Analysis was further performed using a reversed-phase column (COSMOSIL 5C18-MSII, 2.0 mm × 150 mm, 5 μm; Nacalai Tesque, Inc.). The column temperature was set to 40 °C, and the autosampler was maintained at 10 °C. The mobile phase (A; 30% methanol in 8.5 mM ammonium formate and 0.0075% formic acid, and B; 90% methanol in 8.5 mM ammonium formate and 0.0075% formic acid) was pumped at a flow rate of 0.2 mL/min. The initial mobile phase composition was maintained at 30% mobile phase B for 1 min, changed linearly to 90% mobile phase B from 1 to 8 min, maintained for 1 min, returned to 30% mobile phase B from 9 to 10 min, and maintained for 1 min for chromatographic column equilibrium. The MS scan was operated in positive ionization mode for DIC, MEF, ZOM, KET, and NAP, or negative ionization mode, for FLU. […] The concentrations of NSAIDs were determined from a single-point calibration in every assay for NSAIDs after confirmation of linearity between area and concentrations of NSAIDs.

Data set [6] has as its system proteins of Mit (mitochondrial fraction of liver homogenate). In words: Covalent adduct formation of NSAIDs-AG with proteins of mitochondrial fraction (Mit). It counts as binding, rat. The settings on record: 180 μM, 6 h; for covalent adduct formation with Mit proteins: protein 1 mg/mL, 37 °C.
Data set [7] addresses T2, UGT2B7 (Homo sapiens, UniProt P16662).
T2 construct: purchased Corning, Inc
T2 sequence (P16662 24-529): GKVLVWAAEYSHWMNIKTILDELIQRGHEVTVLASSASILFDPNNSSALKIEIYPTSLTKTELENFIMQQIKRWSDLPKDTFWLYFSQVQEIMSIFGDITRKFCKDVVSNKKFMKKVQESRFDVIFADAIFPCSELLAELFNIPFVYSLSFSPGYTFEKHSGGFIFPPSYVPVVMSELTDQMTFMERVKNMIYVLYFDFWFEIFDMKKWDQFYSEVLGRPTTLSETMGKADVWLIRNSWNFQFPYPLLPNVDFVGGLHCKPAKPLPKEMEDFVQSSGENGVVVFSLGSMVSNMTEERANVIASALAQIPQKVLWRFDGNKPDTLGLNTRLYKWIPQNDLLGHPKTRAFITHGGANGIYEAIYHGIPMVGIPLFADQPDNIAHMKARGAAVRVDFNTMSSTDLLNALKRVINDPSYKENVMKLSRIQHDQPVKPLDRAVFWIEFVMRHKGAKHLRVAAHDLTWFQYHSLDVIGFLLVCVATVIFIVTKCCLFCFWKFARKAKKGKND
The data set is described as follows: Covalent adduct formation of NSAIDs-AG with UGT2B7. It counts as binding. The settings on record: 180 μM, UGT 3.4 μM, 6 h; for covalent adduct formation with UGT2B7: 37 °C. The protocol: (§1) The concentrations of UGT were set at 3.4 μM by the preliminary experiments on the linearity of covalent adduct formation. The covalent adduct formation of NSAIDs-AG with organelle proteins and UGT was determined according to previous reports on NSAIDs-AG with albumin with some modifications. After a deproteinization of the reaction mixture, methanol/diethyl ether (3:1) was added to the pellet. […] The concentrations of the parent NSAIDs were measured using liquid chromatography-tandem mass spectrometry (LC-MS/MS). Aliquots of 10 μL were injected into the LC-MS/MS system. The LC-MS/MS equipment consisted of an LC system (UltiMate 3000 series, Thermo Fisher Scientific, Inc.) and TSQ Endura Triple Quadrupole Mass Spectrometer with electrospray ionization (Thermo Fisher Scientific, Inc.). Finnigan Xcalibur software (Thermo Fisher Scientific, Inc.) was used for data recording and analysis. Analysis was further performed using a reversed-phase column (COSMOSIL 5C18-MSII, 2.0 mm × 150 mm, 5 μm; Nacalai Tesque, Inc.). The column temperature was set to 40 °C, and the autosampler was maintained at 10 °C. The mobile phase (A; 30% methanol in 8.5 mM ammonium formate and 0.0075% formic acid, and B; 90% methanol in 8.5 mM ammonium formate and 0.0075% formic acid) was pumped at a flow rate of 0.2 mL/min. The initial mobile phase composition was maintained at 30% mobile phase B for 1 min, changed linearly to 90% mobile phase B from 1 to 8 min, maintained for 1 min, returned to 30% mobile phase B from 9 to 10 min, and maintained for 1 min for chromatographic column equilibrium. The MS scan was operated in positive ionization mode for DIC, MEF, ZOM, KET, and NAP, or negative ionization mode, for FLU. The conditions for electrospray ionization were set at 3500 V spray voltage for positive ionization mode and 2500 V spray voltage for negative ionization mode at 400 °C capillary temperature, and 300 °C vaporizer temperature with 40 arbitrary units of nitrogen sheath gas and 10 arbitrary units of auxiliary gas. The MS scan was operated in the positive or negative ionization mode. The selected reaction monitoring (SRM) mode was used, with argon as the collision gas at 1.5 mTorr. The mass resolution was set at 0.7 full-width at half-height (unit resolution). SRM transitions (precursor and product ions) were mass to charge ratios of (m/z) 296 > 214 for DIC (positive ionization mode), 294 > 250 for DIC (negative ionization mode), 242 > 224 for MEF, 292 > 139 for ZOM, 243 > 198 for R- and S-FLU, 255 > 209 for R- and S-KET, 231 > 185 for R- and S-NAP, and 302 > 220 for DIC-d4. The collision energies were 15 V for DIC (negative ionization mode), ZOM, MEF, FLU, KET, and NAP; 35 V for DIC (positive ionization mode); and DIC-d4. The concentrations of NSAIDs were determined from a single-point calibration in every assay for NSAIDs after confirmation of linearity between area and concentrations of NSAIDs.

In data set [8] the target is T3, UGT2B4 (Homo sapiens, UniProt P06133).
T3 construct: purchased Corning, Inc
T3 sequence (P06133 24-528): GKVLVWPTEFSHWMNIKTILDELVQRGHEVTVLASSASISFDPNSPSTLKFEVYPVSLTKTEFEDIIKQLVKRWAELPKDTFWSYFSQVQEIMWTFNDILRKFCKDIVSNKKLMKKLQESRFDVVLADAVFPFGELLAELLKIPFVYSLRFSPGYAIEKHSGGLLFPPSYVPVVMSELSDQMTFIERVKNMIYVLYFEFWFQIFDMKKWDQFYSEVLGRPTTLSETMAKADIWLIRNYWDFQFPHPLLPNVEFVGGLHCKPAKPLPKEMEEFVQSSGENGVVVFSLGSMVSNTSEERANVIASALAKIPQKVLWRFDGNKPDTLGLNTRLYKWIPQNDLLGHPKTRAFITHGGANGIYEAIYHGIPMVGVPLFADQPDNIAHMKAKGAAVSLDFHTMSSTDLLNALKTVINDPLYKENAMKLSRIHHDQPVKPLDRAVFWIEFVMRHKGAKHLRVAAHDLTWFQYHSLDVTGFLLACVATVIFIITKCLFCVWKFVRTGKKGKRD
In words: Covalent adduct formation of NSAIDs-AG with UGT2B4. The class given is binding. The settings on record: R vs S diastereomer; 180 μM, UGT 3.4 μM, 6 h. The procedure:
as §1

For the molecule `O=C(Cc1ccccc1Nc1c(Cl)cccc1Cl)O[C@@H]1O[C@H](C(=O)O)[C@@H](O)[C@H](O)[C@H]1O` [DIC-AG], the “covalent adducts with organelle proteins (Cyt) relative to R-KET-AG” value in data set [1] (1 mg/mL) was “approximately twice as high”. In addition, the “covalent adduct formation with Cyt proteins” value in data set [1] is on record as “formed covalent adducts”. For the same molecule, the “covalent adducts with organelle proteins (Nuc) relative to R-KET-AG” value in data set [2] (1 mg/mL) is given as “approximately twice as high”. The “covalent adduct formation with Nuc proteins” value in data set [2] is reported as “formed covalent adducts”. Further, in data set [3] (180 μM, 1 mg/mL, 6 h), the “covalent adducts with organelle proteins (Mic) relative to R-KET-AG” value is given as “approximately twice as high”. Moreover, in data set [3] (180 μM, 6 h, 37 °C), the “covalent adduct formation with Mic proteins” value was “formed covalent adducts”. Also, in data set [3] (DIC-AG 120-600 μM for 6 h, 180 μM for 1-24 h, Mic 1 mg/mL, 37 °C), the “number of covalent adducts with the proteins of Mic, effect of concentration and incubation time” value is “increased in a concentration- and time-dependent manner”. The half-lives in buffers entry in data set [4] is on record as “relatively short half-lives”. Also, the “capacity to form covalent adducts with UGT1A9 relative to mefenamic acid-AG” value in data set [5] was “approximately 10 times”. For the same molecule, the “covalent adducts with organelle proteins (Mit) relative to R-KET-AG” value in data set [6] (1 mg/mL) is listed as “approximately twice as high”. The “covalent adduct formation with Mit proteins” value in data set [6] was “formed covalent adducts”. In addition, in data set [7], the “amounts of covalent adducts with UGT2B7 compared with UGT1A9” value is reported as “significantly lower amounts of covalent adducts”, the “capacity to form covalent adducts with UGT2B7 relative to mefenamic acid-AG” value was “approximately 10 times” and the “covalent adduct formation with UGT2B7” value was “higher amounts of covalent adducts”.
On to `CC(C(=O)O[C@@H]1O[C@H](C(=O)O)[C@@H](O)[C@H](O)[C@H]1O)c1cccc(C(=O)c2ccccc2)c1` (stereo partly shown) [KET-AG], for which, in data set [1], the “covalent adduct formation with Cyt proteins” value was “formed covalent adducts”. For the same molecule, in data set [2], the “covalent adduct formation with Nuc proteins” value is “formed covalent adducts”. Also, the “covalent adduct formation with Mic proteins” value in data set [3] (180 μM, 6 h, 37 °C) is “formed covalent adducts”. Also, the “covalent adduct formation with Mit proteins” value in data set [6] was “formed covalent adducts”. Moreover, the “covalent adduct formation with UGT2B4 compared with the other diastereomer” value in data set [8] is reported as “remarkably stereoselective formation of a covalent adduct”. Also, the “covalent adduct formation with UGT2B7 compared with the other diastereomer” value in data set [7] (R vs S diastereomer) was “remarkably stereoselective formation of a covalent adduct”.
In the case of `COc1ccc2cc(C(C)C(=O)O[C@@H]3O[C@H](C(=O)O)[C@@H](O)[C@H](O)[C@H]3O)ccc2c1` (stereo partly shown) [NAP-AG], in data set [4], the half-lives in buffers result is on record as “relatively short half-lives”. For the same molecule, the “covalent adduct formation with UGT2B7” value in data set [7] is given as “higher amounts of covalent adducts”.

The values are drawn from publication PMC9104950, “Stereoselective Covalent Adduct Formation of Acyl Glucuronide Metabolite of Nonsteroidal Anti-Inflammatory Drugs with UDP-Glucuronosyltransferase” (International Journal of Molecular Sciences, 2022).
